Test results: patent US20260256135A1, “SOLVENT COMPOSITION FOR AGROCHEMICAL FORMULATIONS” (SPECIALTY OPERATIONS FRANCE, priority 2023, published 2026)

Experiment: Test 1: maximal solubility of an active (solo) in a solvent system, visual observation
Type: physicochemical
Details: active dissolved in the solvent system; limpid with the naked eye
Source text: The maximal solubility of an active or a combo of actives in a solvent system is characterized by visual observation. At a given concentration, if the mixture is limpid (with the naked eye), the active ingredient(s) is (are) considered to be soluble in the solvent system at this concentration. However, if a sedimentation of the active ingredient(s) appears, it is not soluble anymore in the solvent system and the maximal solubility is reached. The maximal solubility is thus defined as the maximum amount of active ingredient(s) that can be dissolved in the solvent system, equal to the amount at which the mixture remains limpid (with the naked eye). Each active ingredient or combo is added little by little in different solvent systems. The solutions are magnetically stirred until complete dissolution. Then an additional amount of active ingredient is added and this operation is repeated until the last part of active ingredient added could not be dissolved anymore, taking care to stir the solution after each addition of active ingredient.

Structure (SMILES) | maximal solubility of Difenoconazole | maximal solubility of Picoxystrobin | maximal solubility of Pinoxaden
CCCCOC(=O)CCC(C)=O [GFbio ReSolv 200, n-butyl levulinate] | 44.5 g/100 g of solvent | 27.3 g/100 g of solvent | 11.4 g/100 g of solvent
COC(=O)C(C)CCC(=O)N(C)C (stereo not drawn) [Rhodiasolv ® Polarclean, methyl-5-(dimethylamino)-2-methyl-5-oxopentanoate] | 65.5 g/100 g of solvent | 43.9 g/100 g of solvent | 13.0 g/100 g of solvent
